Experimental findings from patent publication US11787810B2, “Diacylglyceride O-acyltransferase 2 inhibitors” (Merck Sharp & Dohme Corp., priority 2020, dated 2023) are described below.

SMILES strings stand for the structures.

Chain of human DGAT2 (hDGAT2) (Q96PD7 whole entry): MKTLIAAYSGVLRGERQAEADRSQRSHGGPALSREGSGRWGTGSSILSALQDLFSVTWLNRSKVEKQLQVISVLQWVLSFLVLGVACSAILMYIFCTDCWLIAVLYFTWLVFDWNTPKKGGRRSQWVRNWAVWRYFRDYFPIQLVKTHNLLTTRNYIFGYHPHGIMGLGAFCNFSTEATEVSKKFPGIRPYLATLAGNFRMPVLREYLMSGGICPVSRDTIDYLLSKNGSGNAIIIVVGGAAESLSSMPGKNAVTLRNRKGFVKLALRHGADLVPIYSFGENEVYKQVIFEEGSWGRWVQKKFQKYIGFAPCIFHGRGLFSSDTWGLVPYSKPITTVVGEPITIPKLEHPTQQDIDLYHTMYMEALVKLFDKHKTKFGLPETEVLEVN

One assay addresses human DGAT2 (hDGAT2) (Homo sapiens (Human), UniProt Q96PD7). Put plainly: DGAT2 enzymatic activity assay (13C18-triolein formation, LC/MS/MS). In kind it is biochemical. The settings on record: hDGAT2 Sf-9 membrane prep, 25 μM diolein, 5 μM 13C oleoyl-CoA; read-out: Human DGAT2 IC50. How it is done:
Sf-9 insect cells were maintained in Grace's insect cell culture medium with 10% heated-inactivated fetal bovine serum, 1% Pluronic F-68 and 0.14 μg/ml Kanamycine sulfate at 27° C. in a shaker incubator. After infection with untagged baculovirus expressing human DGAT2 (hDGAT2) at multiplicity of infection (MOI) 3 for 48 hours, cells were harvested. Cell pellets were suspended in buffer containing 10 mM Tris-HCl pH 7.5, 1 mM EDTA, 250 mM sucrose and Complete Protease Inhibitor Cocktail (Sigma Aldrich), and sonicated on ice. Cell debris were removed by centrifugation at 2000×g for 15 minutes. Membrane fractions were isolated by ultracentrifugation (100,000×g), resuspended in the same buffer, and frozen (−80° C.) for later use. The protein concentration was determined with the Pierce™ BCA Protein Assay Kit (Thermo Fisher Scientific). Expression of protein levels was analyzed by immunoblotting with rabbit anti-DGAT2 antibody (Abcam, ab102831) and donkey anti-rabbit IgG H&L Alexa Fluor® 647 (Abcam, ab150075) followed by detection using Typhoon FLA9000 (GE Healthcare).
LC/MS/MS analyses were performed using Thermal Fisher's LX4-TSQ Vantage system. This system consists of an Agilent binary high-performance liquid chromatography (HPLC) pumps and a TSQ Vantage triple quadrupole MS/MS instrument. For each sample, 2 μL samples from the top organic layer of in-plate liquid-liquid extraction were injected onto a Thermo Betabasic C4 column (2.1 mm×20 mm, 5 μm particle size). The samples were then eluted using the following conditions; mobile phase: Isopropanol:acetonitrile/10 mM ammonium formate=50/35/15 (v/v/v), flow rate: 0.8 mL/min, temperature: 25° C. Data was acquired in positive mode using a heated electrospray ionization (HESI) interface. The operational parameters for the TSQ Vantage MS/MS instrument were a spray voltage of 3000 V, capillary temperature of 280° C., vaporizer temperature 400° C., sheath gas 45 arbitrary unit, Aux gas 10 arbitrary units, S-lens 165 and collision gas 1.0 mTorr. […] (SRM) chromatograms of ^13C18-triolein (Q1: 920.8>Q3:621.3) and internal standard ^13C21-triolein (Q1: 923.8>Q3:617.3) were collected for 33 sec. The peak area was integrated by Xcalibur Quan software. The ratio between the ^13C18triolein generated in the reaction and spiked in internal standard ^13C21-triolein was used to generate percentage inhibition and IC50 values. Compound percentage inhibition was calculated by the following formula: Inhibition %=1-[(compound response−low control)/(high control−low control)]×100%. Potent compounds were titrated and IC50 were calculated by 4 parameter sigmoidal curve fitting formula.
DGAT2 activity was determined by measuring the amount of enzymatic product ^13C18-triolein (^13C-1,2,3-Tri(cis-9-octadecenoyl)glycerol) using the membrane prep mentioned above. The assay was carried out in ABgene 384-well assay plates in a final volume of 25 μL at rt. The assay mixture contained the following: assay buffer (100 mM Tris·Cl, pH 7.0, 20 mM MgCl2, 5% ethanol), 25 μM of diolein, 5 μM of ^13C oleoyl-CoA and 8 ng/μL of DGAT2 membrane.
On to `COC1(c2cccc(-c3nn(C(C)C)c4cc(C(=O)NC5(C)CS(=O)(=O)C5)cnc34)c2)CC1` [Example 128, 1-isopropyl-3-(3-(1-methoxycyclopropyl)phenyl)-N-(3-methyl-1,1-dioxidothietan-3-yl)-1H-pyrazolo[4,3-b]pyridine-6-carboxamide], for which the half-maximal inhibitory concentration (IC50) worked out at 5450 nM.

In the case of `CC1(NC(=O)c2cnc3c(-c4cccc(OC(F)F)c4)nn(C4CCOC(C(F)(F)F)C4)c3c2)CS(=O)(=O)C1` (single isomer, unassigned) [Example 76b, 3-(3-(difluoromethoxy)phenyl)-N-(3-methyl-1,1-dioxidothietan-3-yl)-1-(2-(trifluoromethyl)tetrahydro-2H-pyran-4-yl)-1H-pyrazolo[4,3-b]pyridine-6-carboxamide], the IC50 stood at 211 nM.

Turning to `CC(C)n1nc(-c2cccc(OC(F)F)c2)c2ncc(C(=O)NC3(C)CCOC3)cc21` (single isomer, unassigned) [Example 48a, 3-(3-(difluoromethoxy)phenyl)-1-isopropyl-N-(3-methyltetrahydrofuran-3-yl)-1H-pyrazolo[4,3-b]pyridine-6-carboxamide], the IC50 is 6.3 nM.

For `CC(C)n1nc(-c2cccc(OC(F)F)c2)c2ncc(C(=O)NC3(CO)CCOC3)cc21` (single isomer, unassigned) [Example 39a, 3-[3-(difluoromethoxy)phenyl]-N-[3-(hydroxymethyl)tetrahydrofuran-3-yl]-1-isopropyl-pyrazolo[4,3-b]pyridine-6-carboxamide], the IC50 came out at 19 nM.

In the case of `CC1(NC(=O)c2cnc3c(-c4cccc(OC(F)F)c4)nn(C4CCOCC4F)c3c2)CS(=O)(=O)C1` (single isomer, unassigned) [Example 75a, 3-(3-(difluoromethoxy)phenyl)-1-(3-fluorotetrahydro-2H-pyran-4-yl)-N-(3-methyl-1,1-dioxidothietan-3-yl)-1H-pyrazolo[4,3-b]pyridine-6-carboxamide], the concentration for half-maximal inhibition (IC50) is 29 nM.

With `CC(O)C(C)NC(=O)c1cnc2c(-c3cccc(OC(F)F)c3)nn(C(C)C)c2c1` (single isomer, unassigned) [Example 45c, 3-(3-(difluoromethoxy)phenyl)-N-(3-hydroxybutan-2-yl)-1-isopropyl-1H-pyrazolo[4,3-b]pyridine-6-carboxamide], the 50% inhibitory concentration (IC50) is 498 nM.

Regarding `CC(C)n1nc(-c2cccc(OC(F)F)c2)c2ncc(C(=O)NC3(C)CCOC3)cc21` (single isomer, unassigned) [Example 48b, 3-(3-(difluoromethoxy)phenyl)-1-isopropyl-N-(3-methyltetrahydrofuran-3-yl)-1H-pyrazolo[4,3-b]pyridine-6-carboxamide], the IC50 was determined as 16 nM.

Take `CC1(NC(=O)c2cnc3c(-c4cccc(OC(F)F)c4)nn(C4CCOC(C)(C)C4)c3c2)CS(=O)(=O)C1` (single isomer, unassigned) [Example 77b, 3-(3-(difluoromethoxy)phenyl)-1-(2,2-dimethyltetrahydro-2H-pyran-4-yl)-N-(3-methyl-1,1-dioxidothietan-3-yl)-1H-pyrazolo[4,3-b]pyridine-6-carboxamide]: the IC50 came out at 7.4 nM.

For `CC1(C#N)CC(n2nc(-c3cccc(OC(F)F)c3)c3ncc(C(=O)NC4(C)CS(=O)(=O)C4)cc32)C1` (single isomer, unassigned) [Example 87a, 1-(3-cyano-3-methylcyclobutyl)-3-(3-(difluoromethoxy)phenyl)-N-(3-methyl-1,1-dioxidothietan-3-yl)-1H-pyrazolo[4,3-b]pyridine-6-carboxamide], the IC50 came to 70 nM.

Turning to `CC(O)Cn1nc(-c2cccc(OC(F)F)c2)c2ncc(C(=O)NC3(C)CS(=O)(=O)C3)cc21` (single isomer, unassigned) [Example 68a, 3-(3-(difluoromethoxy)phenyl)-1-(2-hydroxypropyl)-N-(3-methyl-1,1-dioxidothietan-3-yl)-1H-pyrazolo[4,3-b]pyridine-6-carboxamide], the half-maximal inhibitory concentration (IC50) worked out at 18 nM.

Take `CC(C)n1nc(-c2cccc(OC(F)F)c2)c2ncc(C(=O)NC3(C(C)O)CCOC3)cc21` (single isomer, unassigned) [Example 50c, 3-(3-(difluoromethoxy)phenyl)-N-(3-(1-hydroxyethyl)tetrahydrofuran-3-yl)-1-isopropyl-1H-pyrazolo[4,3-b]pyridine-6-carboxamide]: the IC50 stood at 108 nM.

`CC1(NC(=O)c2cnc3c(-c4cccc(OC(F)F)c4)nn(C4CCOC(C)(C)C4)c3c2)CS(=O)(=O)C1` (single isomer, unassigned) [Example 77a, 3-(3-(difluoromethoxy)phenyl)-1-(2,2-dimethyltetrahydro-2H-pyran-4-yl)-N-(3-methyl-1,1-dioxidothietan-3-yl)-1H-pyrazolo[4,3-b]pyridine-6-carboxamide]: the IC50 worked out at 140 nM.

For `CC(C)n1nc(-c2cccc(OC(F)F)c2)c2ncc(C(=O)NC3(C(C)(C)O)CCOC3)cc21` (single isomer, unassigned) [Example 47b, 3-(3-(difluoromethoxy)phenyl)-N-(3-(2-hydroxypropan-2-yl)tetrahydrofuran-3-yl)-1-isopropyl-1H-pyrazolo[4,3-b]pyridine-6-carboxamide], the IC50 amounted to 50 nM.

Consider `C[C@]1(NC(=O)c2cnc3c(-c4cccc(OC(F)F)c4)nn(C4CCOC4)c3c2)CCS(=O)(=O)C1` (single isomer, unassigned) [Example 60b], for which the IC50 was 37 nM.

On to `CC(C)n1nc(-c2cccc(OC(F)F)c2)c2ncc(C(=O)NC(C)(C)CO)cc21` [Example 42, 3-(3-(difluoromethoxy)phenyl)-N-(1-hydroxy-2-methylpropan-2-yl)-1-isopropyl-1H-pyrazolo[4,3-b]pyridine-6-carboxamide], for which the IC50 is 38 nM.

Regarding `CC1(NC(=O)c2cnc3c(-c4cccc(OC(F)F)c4)nn([C@@H]4COC[C@H]4O)c3c2)CS(=O)(=O)C1` (single isomer, unassigned) [Example 53b, 3-(3-(difluoromethoxy)phenyl)-1-((trans)-4-hydroxytetrahydrofuran-3-yl)-N-(3-methyl-1,1-dioxidothietan-3-yl)-1H-pyrazolo[4,3-b]pyridine-6-carboxamide], the IC50 was found to be 132 nM.

`CC(C)n1nc(-c2cccc(OC(F)F)c2)c2ncc(C(=O)NC3(C)CS(=O)(=O)C3)cc21` [Example 25, 3-[3-(difluoromethoxy)phenyl]-1-isopropyl-N-(3-methyl-1,1-dioxidothietan-3-yl)-1H-pyrazolo[4,3-b]pyridine-6-carboxamide]: the half-inhibitory concentration (IC50) stood at 4.7 nM.

Turning to `O=C(N[C@@H]1CCC[C@H]1N1CCOCC1)c1cnc2c(-c3cccc(OC(F)F)c3)cn(-c3ncc(F)cn3)c2c1` [Example 7, 3-(3-(difluoromethoxy)phenyl)-1-(5-fluoropyrimidin-2-yl)-N-((1R,2R)-2-morpholinocyclopentyl)-1H-pyrrolo[3,2-b]pyridine-6-carboxamide], the IC50 is 45 nM.

In the case of `CC(C)n1nc(-c2cccc(C3(O)CC3)c2)c2ncc(C(=O)NC3(C)CS(=O)(=O)C3)cc21` [Example 127, 3-(3-(1-Hydroxycyclopropyl)phenyl)-1-isopropyl-N-(3-methyl-1,1-dioxidothietan-3-yl)-1H-pyrazolo[4,3-b]pyridine-6-carboxamide], the IC50 worked out at 298 nM.

For `CCC(C)n1nc(-c2cccc(OC(F)F)c2)c2ncc(C(=O)NC3(C)CS(=O)(=O)C3)cc21` (single isomer, unassigned) [Example 66b, 3-[3-(difluoromethoxy)phenyl]-N-(3-methyl-1,1-dioxo-thietan-3-yl)-1-sec-butyl-pyrazolo[4,3-b]pyridine-6-carboxamide], the IC50 is 1.5 nM.

The assay is the same for the next values; noted with them: table head without 'Human'; same membrane assay; read-out: DGAT2 IC50.
In the case of `CC(n1nc(-c2cccc(OC(F)F)c2)c2ncc(C(=O)NC3(C)CS(=O)(=O)C3)cc21)C(C)(C)O` (single isomer, unassigned) [Example 130a, 3-(3-(difluoromethoxy)phenyl)-1-(3-hydroxy-3-methylbutan-2-yl)-N-(3-methyl-1,1-dioxidothietan-3-yl)-1H-pyrazolo[4,3-b]pyridine-6-carboxamide], the IC50 was 2.8 nM.

The IC50 is the concentration that inhibits the measured activity by half.
